Conditions: Liquid, Vibrating tube method

CC(C)C(C)C [2,3-dimethylbutane]
mass density [kg/m3]
Conditions | 283.15 K | 288.15 K | 293.15 K | 298.15 K | 303.15 K | 308.15 K | 313.15 K | 318.15 K | 323.15 K | 328.15 K
100 kPa | 670.76 | 666.22 | 661.58 | 657 | 652.31 | 647.61 | 642.78 | 638.08 | 633.18 | 628.26
2000 kPa | 672.72 | 668.35 | 663.76 | 659.21 | 654.73 | 650.13 | 645.28 | 640.8 | 636.04 | 631.14
5000 kPa | 675.8 | 671.5 | 667.04 | 662.62 | 658.23 | 653.82 | 649.18 | 644.77 | 640.11 | 635.61
7000 kPa | 677.77 | 673.5 | 669.15 | 664.81 | 660.39 | 656.12 | 651.62 | 647.3 | 642.73 | 638.3
10000 kPa | 680.57 | 676.37 | 672.12 | 667.97 | 663.63 | 659.42 | 655.04 | 650.89 | 646.47 | 642.27
20000 kPa | 689.26 | 685.39 | 681.36 | 677.49 | 673.54 | 669.63 | 665.61 | 661.8 | 657.61 | 653.85
30000 kPa | 697.12 | 693.43 | 689.64 | 686.05 | 682.15 | 678.59 | 674.74 | 671.23 | 667.06 | 663.86
40000 kPa | 704.27 | 700.77 | 697.12 | 693.73 | 690.01 | 686.72 | 683.04 | 679.58 | 676.08 | 672.8
50000 kPa | 710.91 | 707.56 | 704.07 | 700.78 | 697.16 | 694.02 | 690.56 | 687.47 | 684.13 | 680.68
60000 kPa | 717.08 | 713.85 | 710.4 | 707.39 | 703.95 | 700.83 | 697.4 | 694.5 | 691.19 | 688.05
65000 kPa | 720.09 | 716.77 | 713.55 | 710.52 | 707.12 | 704.06 | 700.79 | 697.71 | 694.58 | 691.47

CCCC(C)C [2-methylpentane]
mass density [kg/m3]
Conditions | 283.15 K | 288.15 K | 293.15 K | 298.15 K | 303.15 K | 308.15 K | 313.15 K | 318.15 K | 323.15 K | 328.15 K
100 kPa | 662.38 | 657.8 | 653.28 | 648.63 | 643.96 | 639.25 | 634.49 | 629.65 | 624.76 | 619.82
2000 kPa | 664.49 | 659.95 | 655.38 | 651 | 646.27 | 641.65 | 637.11 | 632.32 | 627.48 | 622.75
5000 kPa | 667.45 | 663.16 | 658.76 | 654.32 | 649.83 | 645.36 | 640.96 | 636.32 | 631.78 | 627.22
7000 kPa | 669.44 | 665.17 | 660.81 | 656.61 | 652.12 | 647.77 | 643.31 | 638.86 | 634.39 | 629.87
10000 kPa | 672.23 | 668.05 | 663.8 | 659.71 | 655.36 | 651.1 | 646.93 | 642.49 | 638.24 | 633.86
20000 kPa | 680.99 | 677.13 | 673.11 | 669.38 | 665.3 | 661.38 | 657.45 | 653.46 | 649.56 | 645.47
30000 kPa | 689.02 | 685.21 | 681.56 | 677.93 | 673.98 | 670.38 | 666.76 | 663.07 | 659.4 | 655.55
40000 kPa | 696.18 | 692.59 | 689.05 | 685.62 | 682.03 | 678.4 | 675.03 | 671.49 | 667.99 | 664.47
50000 kPa | 702.82 | 699.4 | 695.95 | 692.66 | 689.27 | 685.81 | 682.68 | 679.17 | 675.91 | 672.49
60000 kPa | 708.98 | 705.61 | 702.39 | 699.21 | 695.84 | 692.62 | 689.53 | 686.27 | 683.16 | 679.93
65000 kPa | 711.97 | 708.71 | 705.49 | 702.34 | 699.14 | 695.97 | 692.86 | 689.7 | 686.56 | 683.41

From the NIST ThermoML archive (doi:10.1016/j.fluid.2012.11.013)
